Laboratory results taken from US12077503B2, “Substituted cyclic amides and their use as herbicides” (FMC CORPORATION, priority 2015, dated 2024).

Experiments:
Format in all cases: in vivo
Kochia (Kochia scoparia) [1] = test: Test A preemergence; conditions: Bassia scoparia, pre-emergence, 240 h; for pest or weed control at 125 g/ha: 125 g ai/ha, preemergence, 0 to 100 scale where 0 is no effect and 100 is complete control, read-out: Kochia plant response rating; for pest or weed control at 500 g/ha: 500 g ai/ha, Preemergence, visual injury vs untreated controls after approximately 10 d, read-out: Kochia plant response rating (0 to 100 scale where 0 is no effect and 100 is complete control)
In short: (§1)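 Ratings of 0 (no effect) to 100 (complete control) come from visual comparison with untreated controls roughly 10 d after treatment. Test chemicals, formulated in a non-phytotoxic solvent mixture with surfactant, were applied either as a preemergence directed soil spray on seeded soil or postemergence to one- to two-leaf plants 2 to 10 cm tall.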

[2] = system: barnyardgrass (Echinochloa crus-galli); test: Test A preemergence; conditions: Echinochloa crus-galli, pre-emergence, 240 h; for pest or weed control at 125 g/ha: 125 g ai/ha, preemergence, 0 to 100 scale where 0 is no effect and 100 is complete control, read-out: Barnyardgrass plant response rating; for pest or weed control at 500 g/ha: 500 g ai/ha, Preemergence, visual injury vs untreated controls after approximately 10 d, read-out: Barnyardgrass plant response rating (0 to 100 scale where 0 is no effect and 100 is complete control)
In short: as §1

[3] = system: giant foxtail (Setaria faberii); test: Test A preemergence; conditions: Setaria faberi, pre-emergence, 240 h; for pest or weed control at 125 g/ha: 125 g ai/ha, preemergence, 0 to 100 scale where 0 is no effect and 100 is complete control, read-out: Foxtail, Giant plant response rating; for pest or weed control at 500 g/ha: 500 g ai/ha, Preemergence, visual injury vs untreated controls after approximately 10 d, read-out: Foxtail, Giant plant response rating (0 to 100 scale where 0 is no effect and 100 is complete control)
In short: as §1

[4] = system: pigweed (Amaranthus retroflexus); test: Test A preemergence; conditions: Amaranthus retroflexus, pre-emergence, 240 h; for pest or weed control at 125 g/ha: 125 g ai/ha, preemergence, 0 to 100 scale where 0 is no effect and 100 is complete control, read-out: Pigweed plant response rating; for pest or weed control at 500 g/ha: 500 g ai/ha, Preemergence, visual injury vs untreated controls after approximately 10 d, read-out: Pigweed plant response rating (0 to 100 scale where 0 is no effect and 100 is complete control)
[5] = system: ragweed (common ragweed, Ambrosia elatior); test: Test A preemergence; conditions: Ambrosia artemisiifolia, pre-emergence, 240 h; for pest or weed control at 125 g/ha: 125 g ai/ha, preemergence, 0 to 100 scale where 0 is no effect and 100 is complete control, read-out: Ragweed plant response rating; for pest or weed control at 500 g/ha: 500 g ai/ha, Preemergence, visual injury vs untreated controls after approximately 10 d, read-out: Ragweed plant response rating (0 to 100 scale where 0 is no effect and 100 is complete control)
In short: as §1

[6] = system: ryegrass, Italian (Italian ryegrass, Lolium multiflorum); test: Test A preemergence; conditions: Lolium multiflorum, pre-emergence, 240 h; for pest or weed control at 125 g/ha: 125 g ai/ha, preemergence, 0 to 100 scale where 0 is no effect and 100 is complete control, read-out: Ryegrass, Italian plant response rating; for pest or weed control at 500 g/ha: 500 g ai/ha, Preemergence, visual injury vs untreated controls after approximately 10 d, read-out: Ryegrass, Italian plant response rating (0 to 100 scale where 0 is no effect and 100 is complete control)
In short: as §1

[7] = system: Galium (catchweed bedstraw, Galium aparine); test: Test A postemergence; conditions: Galium, post-emergence, 240 h, 125 g ai/ha, postemergence, visual injury rating after approximately 10 d; read-out: Galium plant response rating (0 to 100 scale, 0 no effect, 100 complete control)
In short: as §1

Kochia (Kochia scoparia) [8] = test: Test A postemergence; conditions: Bassia scoparia, post-emergence, 240 h, 125 g ai/ha, postemergence, visual injury rating after approximately 10 d; read-out: Kochia plant response rating (0 to 100 scale, 0 no effect, 100 complete control)
In short: as §1

[9] = system: ragweed (common ragweed, Ambrosia elatior); test: Test A postemergence; conditions: Ambrosia artemisiifolia, post-emergence, 240 h, 125 g ai/ha, postemergence, visual injury rating after approximately 10 d; read-out: Ragweed plant response rating (0 to 100 scale, 0 no effect, 100 complete control)
In short: as §1

[10] = system: ryegrass, Italian (Italian ryegrass, Lolium multiflorum); test: Test A postemergence; conditions: Lolium multiflorum, post-emergence, 240 h, 125 g ai/ha, postemergence, visual injury rating after approximately 10 d; read-out: Ryegrass, Italian plant response rating (0 to 100 scale, 0 no effect, 100 complete control)
In short: as §1

[11] = system: wheat (Triticum aestivum); test: Test A postemergence; conditions: Triticum aestivum, post-emergence, 240 h, 125 g ai/ha, postemergence, visual injury rating after approximately 10 d; read-out: Wheat plant response rating (0 to 100 scale, 0 no effect, 100 complete control)
In short: as §1

[12] = system: barnyardgrass (Echinochloa crus-galli); test: Test B flooded paddy test; conditions: Echinochloa crus-galli, Flood, 250 g ai/ha; scale of 0 to 100 where 0 is no effect and 100 is complete control; read-out: Barnyardgrass plant response rating
In short: (§2)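 Compound goes directly into floodwater once pots are flooded 3 cm above soil, targeting plants at two leaves; the water depth is then held for the test duration. Plants sit 13–15 d in a greenhouse and are rated visually, 100 denoting complete control.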

[13] = system: ducksalad (Heteranthera limosa); test: Test B flooded paddy test; conditions: Heteranthera limosa, Flood, 250 g ai/ha; scale of 0 to 100 where 0 is no effect and 100 is complete control; read-out: Ducksalad plant response rating
In short: as §2

rice (Oryra sativa) = test: Test B flooded paddy test; conditions: Oryza sativa, Flood, 250 g ai/ha; scale of 0 to 100 where 0 is no effect and 100 is complete control; read-out: Rice plant response rating
In short: as §2

[14] = system: sedge, umbrella (small-flower umbrella sedge, Cyperus difformis); test: Test B flooded paddy test; conditions: Cyperus difformis, Flood, 250 g ai/ha; scale of 0 to 100 where 0 is no effect and 100 is complete control; read-out: Sedge, Umbrella plant response rating
In short: as §2

Row | Compound | pest or weed control at 125 g/ha (Kochia (Kochia scoparia) [1]) | pest or weed control at 500 g/ha (Kochia (Kochia scoparia) [1]) | pest or weed control at 125 g/ha [2] | pest or weed control at 500 g/ha [2] | pest or weed control at 125 g/ha [3] | pest or weed control at 500 g/ha [3] | pest or weed control at 125 g/ha [4] | pest or weed control at 500 g/ha [4] | pest or weed control at 125 g/ha [5] | pest or weed control at 500 g/ha [5] | pest or weed control at 125 g/ha [6] | pest or weed control at 500 g/ha [6] | pest or weed control at 125 g/ha [7] | pest or weed control at 125 g/ha (Kochia (Kochia scoparia) [8]) | pest or weed control at 125 g/ha [9] | pest or weed control at 125 g/ha [10] | plant injury at 125 g/ha [11] | pest or weed control at 250 g/ha [12] | pest or weed control at 250 g/ha [13] | pest or weed control at 250 g/ha (rice (Oryra sativa)) | other results
1 | CN1C[C@H](c2cc(F)cc(F)c2)[C@@H](C(=O)Nc2ccccc2[S@@+](C)[O-])C1=O [Compound 872] | 0% | 80% | 90% | 100% | 90% | 90% | 0% | 60% | 60% | 100% | 0% | 40% | 50% | 50% | 0% | 0% | 20% | 0% | 85% | 0% | pest or weed control at 250 g/ha [14]: 40%
2 | CN1C[C@H](c2cccc(COC(F)F)c2)[C@@H](C(=O)Nc2ccccc2S(C)(=O)=O)C1=O [Compound 877] | 60% | 80% | 90% | 100% | 90% | 90% | 0% | 0% | 0% | 60% | 0% | 20% | 20% | 20% | 0% | 20% | 30% | 55% | 100% | 0% | pest or weed control at 250 g/ha [14]: 0%
3 | COc1c(F)ccc([C@H]2CNC(=O)[C@@H]2C(=O)Nc2ccccc2F)c1Cl [Compound 881] | 30% | 60% | 80% | 90% | 80% | 90% | 0% | 0% | 0% | 0% | 30% | 60% | 0% | 30% | 0% | 30% | 0% | 45% | 100% | 15% | pest or weed control at 250 g/ha [14]: 0%
4 | COc1c(F)ccc([C@H]2CNC(=O)[C@@H]2C(=O)Nc2cccc(F)c2F)c1Cl [Compound 882] | 70% | 90% | 90% | 90% | 70% | 90% | 20% | 20% | 30% | 60% | 0% | 30% | 50% | 60% | 0% | 40% | 0% | 45% | 100% | 0% | pest or weed control at 250 g/ha [14]: 0%
